# Measured values reported in ChEMBL document CHEMBL5241056, “Engagement of phytoestrogens in breast cancer suppression: Structural classification and mechanistic approach” (Eur J Med Chem, 2021).
# How the values were obtained:
# MCF7 [1] = assay: Antiproliferative activity against human MCF7 cells assessed as inhibition of cell growth incubated for 6 days by SRB assay; type: functional, cell-based; details: MCF7, 144 h
# [2] = Cytotoxicity against human MCF-10A cells assessed as inhibition of cell growth by MTT assay; type: toxicity, cell-based
# MDA-MB-468 = assay: Antiproliferative activity against human MDA-MB-468 cells assessed as inhibition of cell growth by MTT assay; type: functional, cell-based
# Estrogen receptor = molecular target: T1, Estrogen receptor (Bos taurus, UniProt P49884); assay: Displacement of [3H]-17beta-estradiol from bovine uterine estrogen receptor by competitive binding assay
# T1 sequence (P49884 whole entry): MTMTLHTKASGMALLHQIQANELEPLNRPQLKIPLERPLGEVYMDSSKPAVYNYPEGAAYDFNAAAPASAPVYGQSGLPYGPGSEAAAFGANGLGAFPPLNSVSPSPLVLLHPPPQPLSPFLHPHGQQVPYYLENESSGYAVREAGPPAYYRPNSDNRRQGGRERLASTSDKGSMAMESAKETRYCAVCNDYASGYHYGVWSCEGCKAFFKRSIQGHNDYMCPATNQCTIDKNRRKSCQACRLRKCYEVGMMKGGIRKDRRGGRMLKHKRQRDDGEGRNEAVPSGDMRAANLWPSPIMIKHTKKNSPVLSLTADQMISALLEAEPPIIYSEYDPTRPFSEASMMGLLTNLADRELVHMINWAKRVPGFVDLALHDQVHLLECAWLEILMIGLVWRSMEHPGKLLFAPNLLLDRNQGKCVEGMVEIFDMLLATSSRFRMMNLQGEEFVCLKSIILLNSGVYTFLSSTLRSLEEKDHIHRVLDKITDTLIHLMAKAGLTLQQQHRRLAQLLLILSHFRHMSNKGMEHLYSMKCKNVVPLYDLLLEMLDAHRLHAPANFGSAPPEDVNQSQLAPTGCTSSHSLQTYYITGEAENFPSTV
# MCF7 [3] = assay: Antiproliferative activity against human MCF7 cells assessed as inhibition of cell growth incubated for 3 days by beta scintillation counting based [3H]-thymidine incorporation assay; type: functional
# MCF7 [4] = assay: Antiproliferative activity against human MCF7 cells assessed as inhibition of cell growth incubated for 2 days by WST-1 assay; type: functional, cell-based; details: MCF7, 48 h
# MCF7 [5] = assay: Inhibition of DNA synthesis in human MCF7 cells incubated for 4 days by BrdU incorporation assay; type: functional, cell-based; details: MCF7, 96 h
# MCF7 [6] = assay: Antiproliferative activity against human MCF7 cells assessed as inhibition of cell growth incubated for 0 to 5 days by MTT assay; type: functional, cell-based
# Sulfotransferase 1A1 = Sulfotransferase 1A1 (Rattus norvegicus, UniProt P17988); assay: Inhibition of rat liver SULT1A1-mediated oestradiol sulfonation incubated for 20 mins
# Sulfotransferase 2A1 = molecular target: T2, Sulfotransferase 2A1 (Rattus norvegicus, UniProt P15709); assay: Inhibition of rat SULT2A1-mediated dehydroepiandrosterone sulfonation incubated for 20 mins
# T2 sequence (P15709 whole entry): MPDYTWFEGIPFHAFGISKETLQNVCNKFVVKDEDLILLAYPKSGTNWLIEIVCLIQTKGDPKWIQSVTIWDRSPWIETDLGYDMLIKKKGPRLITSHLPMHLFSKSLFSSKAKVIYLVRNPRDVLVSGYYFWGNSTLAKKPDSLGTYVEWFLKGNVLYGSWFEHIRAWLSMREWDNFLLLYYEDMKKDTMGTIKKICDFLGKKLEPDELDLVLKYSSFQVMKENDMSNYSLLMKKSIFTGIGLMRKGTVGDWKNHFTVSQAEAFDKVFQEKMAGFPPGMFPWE
# [7] = Cytotoxicity against human MCF-10A cells assessed as inhibition of cell growth incubated for 24 to 96 hrs by MTT assay; type: toxicity, cell-based
# MDA-MB-231 = assay: Antiproliferative activity against human MDA-MB-231 cells assessed as inhibition of cell growth incubated for 24 to 96 hrs by MTT assay; type: functional, cell-based
# MCF7 [8] = assay: Antiproliferative activity against human MCF7 cells assessed as inhibition of cell growth incubated for 2 days by SRB assay; type: functional, cell-based; details: MCF7, 48 h
# MCF7 [9] = assay: Antiproliferative activity against human MCF7 cells assessed as inhibition of cell growth incubated for 4 days by SRB assay; type: functional, cell-based; details: MCF7, 96 h
# [10] = Oral bioavailability in CD rat at 168 mg/kg administered daily for 14 days; type: ADME, organism-based; details: in vivo, time 14 day
# [11] = Oral bioavailability in CD rat at 50 mg/kg administered daily for 14 days; type: ADME, organism-based; details: in vivo, time 14 day
# Steryl-sulfatase [12] = molecular target: T3, Steryl-sulfatase (Rattus norvegicus, UniProt P15589); assay: Inhibition of estrone sulfatase in homogeneous rat mammary tumors; type: tissue-based, Tumor
# T3 sequence (P15589 whole entry): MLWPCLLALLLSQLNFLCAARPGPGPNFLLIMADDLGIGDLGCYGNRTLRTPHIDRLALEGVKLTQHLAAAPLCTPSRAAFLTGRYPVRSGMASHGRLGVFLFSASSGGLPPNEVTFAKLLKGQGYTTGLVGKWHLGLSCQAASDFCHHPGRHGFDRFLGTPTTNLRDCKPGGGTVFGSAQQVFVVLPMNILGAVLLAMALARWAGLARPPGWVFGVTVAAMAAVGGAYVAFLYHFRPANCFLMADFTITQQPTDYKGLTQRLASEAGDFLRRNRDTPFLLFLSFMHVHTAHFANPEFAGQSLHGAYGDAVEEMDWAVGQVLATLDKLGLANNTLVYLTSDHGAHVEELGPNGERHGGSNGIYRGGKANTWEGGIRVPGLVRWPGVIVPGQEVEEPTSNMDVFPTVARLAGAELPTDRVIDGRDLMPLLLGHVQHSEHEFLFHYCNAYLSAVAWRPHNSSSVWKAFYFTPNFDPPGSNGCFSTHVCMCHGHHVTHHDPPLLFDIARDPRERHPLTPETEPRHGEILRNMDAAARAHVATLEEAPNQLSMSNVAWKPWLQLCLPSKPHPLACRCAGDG
# Steryl-sulfatase [13] = molecular target: T4, Steryl-sulfatase (Homo sapiens, UniProt P08842); assay: Inhibition of estrone sulfatase in human MCF7 cell microsomes; parameters: species or system Microsome
# T4 sequence (P08842 whole entry): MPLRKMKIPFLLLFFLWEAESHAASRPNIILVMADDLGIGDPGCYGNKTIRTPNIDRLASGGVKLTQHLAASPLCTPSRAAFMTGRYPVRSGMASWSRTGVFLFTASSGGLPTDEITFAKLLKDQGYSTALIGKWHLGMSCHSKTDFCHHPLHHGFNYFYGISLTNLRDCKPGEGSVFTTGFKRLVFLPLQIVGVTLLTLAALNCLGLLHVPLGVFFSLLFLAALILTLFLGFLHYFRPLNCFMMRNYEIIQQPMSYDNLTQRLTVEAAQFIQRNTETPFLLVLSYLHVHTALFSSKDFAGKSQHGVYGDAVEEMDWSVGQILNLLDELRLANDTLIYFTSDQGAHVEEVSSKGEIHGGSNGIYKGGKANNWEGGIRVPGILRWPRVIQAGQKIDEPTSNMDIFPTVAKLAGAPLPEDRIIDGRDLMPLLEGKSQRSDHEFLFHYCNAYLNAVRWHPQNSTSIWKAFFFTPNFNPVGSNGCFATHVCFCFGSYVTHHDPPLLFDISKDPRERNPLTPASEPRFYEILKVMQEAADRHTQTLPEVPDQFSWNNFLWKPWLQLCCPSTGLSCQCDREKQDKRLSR
# Chain of Sulfotransferase 1A1 (P17988 whole entry): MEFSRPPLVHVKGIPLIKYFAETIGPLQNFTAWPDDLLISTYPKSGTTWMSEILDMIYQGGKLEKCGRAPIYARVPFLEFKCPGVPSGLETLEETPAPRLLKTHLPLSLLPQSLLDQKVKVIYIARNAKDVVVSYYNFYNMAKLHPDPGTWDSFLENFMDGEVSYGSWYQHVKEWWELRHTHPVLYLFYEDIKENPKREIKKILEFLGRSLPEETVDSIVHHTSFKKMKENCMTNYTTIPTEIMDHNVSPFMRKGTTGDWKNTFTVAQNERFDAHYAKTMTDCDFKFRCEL
smiles,measurement,setting,value
Oc1ccc(C2COc3cc(O)ccc3C2)cc1 (centres undefined),IC50,MCF7 [1],1 µM
O=C(O)[C@H]1O[C@@H](Oc2cc(O)c3c(=O)cc(-c4ccc(O)cc4)oc3c2)[C@H](O)[C@@H](O)[C@@H]1O,IC50,[2],42 µM
same,IC50,MDA-MB-468,13 µM
C=C[C@@H](/C=C\c1ccc(O)cc1)c1ccc(O)cc1,IC50,Estrogen receptor,0.06 µM
O=c1cc(-c2ccc(O)cc2)oc2cc(O)cc(O)c12 [APIGENIN],IC50,MCF7 [1],1 µM
O=c1cc(-c2ccccc2)oc2cc(O)c(O)c(O)c12 [BAICALEIN],IC50,MCF7 [3],5.3 µg/mL
COc1ccc(-c2coc3cc(O)cc(O)c3c2=O)cc1 [BIOCHANIN],IC50,MCF7 [4],40 µg/mL
same,IC50,MCF7 [5],40 µg/mL
same,IC50,MCF7 [1],10 µM
O=c1oc2cc(O)ccc2c2oc3cc(O)ccc3c12 [COUMESTROL],IC50,MCF7 [6],50 µM
same,IC50,MCF7 [1],0.04 µM
O=c1c(-c2ccc(O)cc2)coc2cc(O)ccc12 [DAIDZEIN],IC50,Sulfotransferase 1A1,0.29 µM
same,IC50,Sulfotransferase 2A1,34 µM
O=c1cc(-c2ccccc2)oc2ccccc12 [FLAVONE],IC50,MCF7 [1],0.3 µM
O=c1c(O)c(-c2ccccc2)oc2cc(O)cc(O)c12 [GALANGIN],IC50,MCF7 [3],4.2 µg/mL
O=c1c(-c2ccc(O)cc2)coc2cc(O)cc(O)c12 [GENISTEIN],IC50,Sulfotransferase 1A1,0.29 µM
same,IC50,Sulfotransferase 2A1,34 µM
COc1cc(O)c2c(=O)cc(-c3ccc(O)cc3)oc2c1 [GENKWANIN],IC50,[2],75 µM
same,IC50,MDA-MB-468,1.6 µM
O=C(/C=C/c1ccc(O)cc1)c1ccc(O)cc1O [ISOLIQUIRITIGENIN],IC50,[7],25 µM
same,IC50,MDA-MB-231,25 µM
COc1cc(O)c(CC=C(C)C)c2c1C(=O)CC(c1ccc(O)cc1)O2 (centres undefined) [ISOXANTHOHUMOL],IC50,MCF7 [8],15.3 µM
same,IC50,MCF7 [9],4.69 µM
O=c1c(O)c(-c2ccc(O)cc2)oc2cc(O)cc(O)c12 [KAEMPFEROL],IC50,Sulfotransferase 1A1,0.29 µM
same,IC50,MCF7 [1],50 µM
same,IC50,Sulfotransferase 2A1,34 µM
O=c1cc(-c2ccc(O)c(O)c2)oc2cc(O)cc(O)c12 [LUTEOLIN],IC50,MCF7 [1],5 µM
C#C[C@]1(O)CC[C@H]2[C@@H]3CCc4cc(OC)ccc4[C@H]3CC[C@@]21C [MESTRANOL],IC50,MCF7 [1],0.04 µM
O=C1C[C@@H](c2ccc(O)cc2)Oc2cc(O)cc(O)c21 [NARINGENIN],IC50,MCF7 [1],0.3 µM
C=C[C@H](/C=C\c1ccc(O)cc1)c1ccc(O)cc1 [NYASOL],IC50,Estrogen receptor,0.4 µM
O=C(CCc1ccc(O)cc1)c1c(O)cc(O)cc1O [PHLORETIN],IC50,MCF7 [1],7 µM
COc1cc(/C=C/c2ccc(O)cc2)cc(OC)c1 [PTEROSTILBENE],bioavailability,[10],80%
O=c1c(O)c(-c2ccc(O)c(O)c2)oc2cc(O)cc(O)c12 [QUERCETIN],IC50,Sulfotransferase 1A1,0.29 µM
same,IC50,MCF7 [1],5 µM
same,IC50,Sulfotransferase 2A1,34 µM
Oc1ccc(/C=C/c2cc(O)cc(O)c2)cc1 [RESVERATROL],bioavailability,[11],20%
COc1ccc(-c2cc(=O)c3c(OC)c(OC)c(OC)cc3o2)cc1OC [SINENSETIN],IC50,[2],65 µM
same,IC50,MDA-MB-468,0.2 µM
C[C@H]1[C@H](C)CC[C@]2(C(=O)O)CC[C@]3(C)C(=CC[C@@H]4[C@@]5(C)CC[C@H](O)C(C)(C)[C@@H]5CC[C@]43C)[C@H]12 [URSOLIC ACID],IC50,Steryl-sulfatase [12],0.131 µM
same,IC50,Steryl-sulfatase [13],0.263 µM
COc1cc2c(c(O)c1C(=O)/C=C/c1ccc(O)cc1)C=CC(C)(C)O2 [XANTHOHUMOL C],IC50,MCF7 [8],15.7 µM
same,IC50,MCF7 [9],6.87 µM
COc1cc(O)c(CC=C(C)C)c(O)c1C(=O)/C=C/c1ccc(O)cc1 [XANTHOHUMOL],IC50,MCF7 [8],13.3 µM
same,IC50,MCF7 [9],3.47 µM
